Where “and” joins values, the source holds several entries; their conditions need not be identical. Identical values can stand only once.
Molecular target: T1, ARF (Homo sapiens, UniProt P62330)
T1 construct: endogenous in cells; host or cells: HEK293SL
Test: ARF BRET sensor (GGA3-PBD-RlucII / rGFP-CAAX), AT1R-mediated
Format: cell-based
Conditions: for AngII-promoted BRET, AT1R-mediated ARF activation: individual experiments
Description: HEK293 cells were transfected with a BRET sensor that monitors the interaction between β-arrestins and the β-appendage of AP-2 (Fig. 2a)[26],[33]. […] The small GTPase ARF6, which binds β-arrestins and facilitates AP-2 and clathrin recruitment at the PM, is also necessary for CCPs initiation and receptor internalization. Therefore, ARF6 activity was assessed using the protein-3 binding domain (PBD) of the golgi-associated, gamma adaptin ear-containing, ARF-binding protein 3 (GGA3) fused to GST (GST-GGA3-PBD) in a pull-down assay, which allows the detection of GTP-bound ARF6 in cells[34] (Fig. 2b). […] This inhibition was selective for ARF6 since 21 had no effect on AT1R-dependent ARF1 activation (Supplementary Fig. 2a). We also devised a BRET assay to quantitatively assess 21’s action on ARF activity. The ARF BRET assay was created using the GGA3-PBD fused to RlucII (GGA3-PBD-RlucII) and the rGFP anchored at the PM (rGFP-CAAX) (Supplementary Fig. 3a). […] 21 blocked ARF’s activation by 40–60% following AT1R stimulation (Fig. 2c).
HEK293SL cells were seeded at a density of 7.5 × 10^5 cells per 100-mm dish and 24 h later, transiently transfected as such. For receptor internalization experiments, cells were transfected with 0.12 μg AT1R-RlucII, B2R-RlucII, or β2AR-RlucII and 0.48 μg of either rGFP-CAAX (to assess removal from the PM) or rGFP-FYVE (to assess accumulation in the endosomes). For β-arrestin recruitment assays, cells were transfected with 0.48 μg of receptor-YFP along with 0.12 μg of β-arrestin-RlucII. For β-arrestin/AP-2 binding experiments, cells were transfected with 1 μg Flag-AT1R, 1 μg β2-Adaptin-YFP, and 0.12 μg β-arrestin2-RlucII. For G protein activation, cells were transfected with 3 μg of sp-Flag-AT1R along with either 4.5 μg of the Gαq-polycistronic BRET sensor or 0.24 μg of the Gαi3-RlucII and 0.6 μg of GFP10-Gγ2 and Gβ1 sensors or 0.12 μg PKN-RBD-RlucII and 0.48 μg of rGFP-CAAX. For PKC activation, cells were transfected with 3 μg of sp-Flag-AT1R and 0.18 μg of the PKC sensor. For GTPase activation experiments, cells were transfected with 1 μg Flag-AT1R, 0.48 μg of rGFP-CAAX, and either 0.12 μg of GGA3-PBD-RlucII, PAK-CRIB-RlucII or Raf-RBD-RlucII. For biosensor validation experiments, cells were additionally transfected with 500 ng Flag-K-Ras-WT, Flag-K-Ras-G12V, Flag-K-Ras-SOS-CAAX, HA-ARF6-WT, HA-ARF6-T27N, Myc-Rac1-WT, Myc-Rac1-Q61L or Myc-Rac1-T17N. For PI3K/Akt activation experiments, cells were transfected with 0.48 μg of rGFP-CAAX and 0.12 μg of Akt (PH)-RlucII. After 18 h of transfection, the media was replaced and cells were divided for subsequent experiments. Cells were detached and seeded onto poly-L-ornithine-coated 96-well flat white bottom plates (BrandTech Scientific) at a density of 2.5 × 10^4 cells per well in media. The next day, cells were washed once with Tyrode’s buffer (140 mM NaCl, 2.7 mM KCl, 1 mM CaCl2, 12 mM NaHCO3, 5.6 mM D-glucose, 0.5 mM MgCl2, 0.37 mM NaH2PO4, 25 mM HEPES, pH 7.4) and left in Tyrode’s buffer. For kinetics of β-arrestin recruitment or β-arrestin binding to receptor and AP-2 experiments, cells were serum starved for 30 min, pretreated with 21 (50 µM) or Barbadin (100 µM) for 30 min, stimulated with 100 nM AngII or 1 µM BK and BRET signals were monitored at indicated times using a Victor X Light plate reader (PerkinElmer). Coelenterazine H (final concentration of 5 µM) was added 3–5 min prior to BRET measurements. Filter set was 460/80 nm and 535/30 nm for detecting the RlucII Renilla luciferase (donor) and YFP (acceptor) light emissions, respectively. The BRET ratio was determined by calculating the ratio of the light emitted by YFP over the light emitted by the RlucII. For G protein activation, cells were serum starved, pretreated with compounds for 30 min, stimulated with 100 nM AngII for 2 min (Gαq, Gαi3, and Rho sensors) or 5 min (PKC sensor). […]

T1 sequence (P62330 2-175): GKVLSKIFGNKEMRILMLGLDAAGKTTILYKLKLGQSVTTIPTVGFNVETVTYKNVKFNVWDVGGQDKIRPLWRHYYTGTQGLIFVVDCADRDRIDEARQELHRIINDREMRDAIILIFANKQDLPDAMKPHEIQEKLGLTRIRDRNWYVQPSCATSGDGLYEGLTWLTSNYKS

CC(C)C(=O)N1CCN(c2ccc(NC(=O)c3cc4ccccc4o3)cc2Cl)CC1 [Compound 21] was tested. Which “block of ARF activation following AT1R stimulation (BRET)” value (50 μM) did it give?
Its value is 40–60%.

What about the IC50 (AT1R, dose-response) of the same compound?
The IC50 was 7 µM.

What about the “AngII-promoted BRET, AT1R-mediated ARF activation” value (“AngII-promoted BRET” for short) (Comp 21 50 μM, time 0 min) of the same compound?
The value was 0.

And the “AngII-promoted BRET” value (Comp 21 50 μM, time 2 min)?
The value was 0.01817 and 0.0425 and 0.0675.

And the “AngII-promoted BRET” value (Comp 21 50 μM, time 5 min)?
Its value is 0.04183 and 0.1107 and 0.06017 and 0.076.

And the “AngII-promoted BRET” value (Comp 21 50 μM, time 10 min)?
The value was 0.04033 and 0.11 and 0.06283 and 0.0785.

And the “AngII-promoted BRET” value (Comp 21 (50 μM), time 1 min)?
The value was 0.04233 and 0.01117 and 0.065.

And the “Arf6 MEAN (Fig.4d)” value (Log [Comp 21] (M) -4)?
The value was 20.8744.

And the “Arf6 MEAN (Fig.4d)” value (Log [Comp21] (M) -4.3)?
Its value is 30.1774.

What about the “Arf6 MEAN (Fig.4d)” value (Log [Comp21] (M) -5) of the same compound?
The value was 40.2199.

What about the “Arf6 MEAN (Fig.4d)” value (Log [Comp21] (M) -5.3) of the same compound?
The value was 84.9863.

And the “Arf6 MEAN (Fig.4d)” value (Log [Comp 21] (M) -6)?
Its value is 88.0739.

What about the “Arf6 MEAN (Fig.4d)” value (Log [Comp21] (M) -6.3) of the same compound?
Its value is 99.6353.

And the “Arf6 MEAN (Fig.4d)” value (Log [Comp 21] (M) -7)?
The value was 93.4599.

Source: PMC8333425, “Discovery of a dual Ras and ARF6 inhibitor from a GPCR endocytosis screen” (Nature Communications, 2021)
